pIC50: −log10 of the molar value. Read-outs that look alike come from different tables or passages of the source.
Assays:
HCT116p53-/- = assay: Cytostatic/cytotoxic MTT assay, HCT116p53-/-; format: cell-based; conditions: Homo sapiens, read-out: MTT, IC50 HCT116 p53-/-
Text: Unless otherwise stated, all cells were purchased from the […] (ATCC). The CCRF-CEM line is derived from T lymphoblastic leukemia, evincing high chemosenzitivity, K562 represent cells from a […] patient sample with bcr-abl translocation, HCT116 is colorectal tumor cell line and its p53 gene knock-down counterpart (HCT116p53−/−, Horizon Discovery, UK) is a model of human cancers with p53 inactivation frequently associated with poor prognosis, A549 cell line is lung adenocarcinoma. The daunorubicin resistant subline of CCRF-CEM cells (CEM-DNR bulk) and paclitaxel resistant subline K562-TAX were selected in our laboratory by cultivation of maternal cell lines in increasing concentrations of daunorubicine or paclitaxel, respectively. The CEM-DNR cells overexpress mrp-1 and mdr-1 genes, while K562-TAX cells overexpress mdr-1 only. Both proteins belong to the family of ABC transporters and are involved in the primary and/or acquired multidrug resistance phenomenon (ref.: Gottesman, M. M.; Fojo, T.; Bates, S. E. Multidrug resistance in cancer: role of ATP-dependent transporters. Nat. Rev. Cancer. 2002, 2, 48-58. (b) Noskova, V.; Dzubak, P.; Kuzmina, G.; Ludkova, A.; Stehlik, D.; Trojanec, R.; Janostakova, A.; Korinkova, G.; Mihal, V.; Hajduch, M. In vitro chemoresistance profile and expression/function of MDR associated proteins in resistant cell lines derived from CCRF-CEM, K562, A549 and MDA MB 231 parental cells. Neoplasma 2002, 49, 418-425). Non-malignant MRC-5 and BJ cells, derived from normal human fibroblasts, were used as controls. The cells were maintained in Nunc/Corning 80 cm^2 plastic tissue culture flasks and cultured in cell culture medium (DMEM/RPMI 1640 with 5 g/L glucose, 2 mM glutamine, 100 U/mL penicillin, 100 µg/mL streptomycin, 10% fetal calf serum, and NaHCO3). Cell suspensions were prepared and diluted according to the particular cell type and the expected target cell density (25,000-30,000 cells/well based on cell growth characteristics). Cells were added by pipette (80 L) into 96-well microtiter plates. Inoculates were allowed a pre-incubation period of 24 h at 37° C. and 5% CO2 for stabilization. Four-fold dilutions, in 20-L aliquots, of the intended test concentration were added to the microtiter plate walls at time zero. All test compound concentrations were examined in duplicate. Incubation of the cells with the test compounds lasted for 72 h at 37° C., in a 5% CO2 atmosphere at 100% humidity. At the end of the incubation period, the cells were assayed using MTT. Aliquots (10 L) of the MTT stock solution (5 mg/ml) were pipetted into each well and incubated for another 1-4 h. After this incubation period the formazan produced was dissolved by addition of 100 µL/well of 10% aq SDS (pH 5.5), followed by a further incubation at 37° C. overnight. The optical density was measured at 540 nm. The IC50 value, the drug concentration inhibiting the cell growth by 50%, was calculated from appropriate dose-response curves.
In vitro cytotoxic/cytostatic activity final nucleosides 1-5 was initially evaluated against […] cell lines derived from human solid tumors including lung (A549 cells) and colon (HCT116 and HCT116p53−/−) carcinomas, as well as leukemia cell lines (CCRF-CEM, CEM-DNR, K562 and K562-TAX) and, for comparison, non-malignant BJ and MRC-5 fibroblasts. Concentrations inhibiting the cell growth by 50% (IC50) were determined using a quantitative metabolic staining with 3-(4,5-dimethylthiazol-2-yl)-2,5-diphenyltetrazolium bromide (MTT) (ref.: Denizot, F.; Lang, R. Rapid colorimetric assay for cell growth and survival: Modifications to the tetrazolium dye procedure giving improved sensitivity and reliability. J. Immunol. Meth. 1986, 89, 271-277) following a 3-day treatment.
Multidrug resistance is a major therapeutic problem in cancer chemotherapy. […]

Row | SMILES | pIC50 (HCT116p53-/-; HCT-116, 72 h) | pIC50 (HCT116p53-/-; HCT-116, 72 h incubation) | melting point [°C]
1 | Cc1ncnc2c1ccn2[C@@H]1O[C@H](CO)[C@@H](O)[C@H]1O [RC5, 4-Methyl-7-(β-D-ribofuranosyl)-7H-pyrrolo[2,3-d]pyrimidine, reference compound] | 7.22 | – | –
2 | CSc1ncnc2c1c(-c1ccsc1)cn2[C@@H]1O[C@H](CO)[C@@H](O)[C@H]1O [Compound 2d, 4-Methylsulfanyl-7-(β-D-ribofuranosyl)-5-(thiophen-3-yl)-7H-pyrrolo[2,3-d]pyrimidine] | – | < 4.70 | 192 to 193
3 | CNc1ncnc2c1c(-c1cc3ccccc3o1)cn2[C@@H]1O[C@H](CO)[C@@H](O)[C@H]1O [Compound 3f, 5-(Benzofuran-2-yl)-4-methylamino-7-(β-D-ribofuranosyl)-7H-pyrrolo[2,3-d]pyrimidine] | – | < 4.70 | 203 to 206
4 | CSc1ncnc2c1c(-c1cccs1)cn2[C@@H]1O[C@H](CO)[C@@H](O)[C@H]1O [Compound 2c, 4-Methylsulfanyl-7-(β-D-ribofuranosyl)-5-(thiophen-2-yl)-7H-pyrrolo[2,3-d]pyrimidine] | – | < 4.70 | –
5 | CN(C)c1ncnc2c1c(-c1cc3ccccc3o1)cn2[C@@H]1O[C@H](CO)[C@@H](O)[C@H]1O [Compound 4f, 5-(Benzofuran-2-yl)-4-dimethylamino-7-(β-D-ribofuranosyl)-7H-pyrrolo[2,3-d]pyrimidine] | – | < 4.70 | –
6 | COc1ncnc2c1c(-c1cc3ccccc3o1)cn2[C@@H]1O[C@H](CO)[C@@H](O)[C@H]1O [Compound 1f, 5-(Benzofuran-2-yl)-4-methoxy-7-(β-D-ribofuranosyl)-7H-pyrrolo[2,3-d]pyrimidine] | – | 4.84 | –
7 | Cc1ncnc2c1c(-c1cc3ccccc3o1)cn2[C@@H]1O[C@H](CO)[C@@H](O)[C@H]1O [Compound 5f, 5-(Benzofuran-2-yl)-4-methyl-7-(β-D-ribofuranosyl)-7H-pyrrolo[2,3-d]pyrimidine] | – | < 4.70 | –
8 | CNc1ncnc2c1c(-c1ccsc1)cn2[C@@H]1O[C@H](CO)[C@@H](O)[C@H]1O [Compound 3d, 4-Methylamino-7-(β-D-ribofuranosyl)-5-(thiophen-3-yl)-7H-pyrrolo[2,3-d]pyrimidine] | – | < 4.70 | 135 to 138
9 | CN(C)c1ncnc2c1ccn2[C@@H]1O[C@H](CO)[C@@H](O)[C@H]1O [RC4, reference compound] | – | 5.29 | –
10 | C#Cc1cn([C@@H]2O[C@H](CO)[C@@H](O)[C@H]2O)c2ncnc(OC)c12 [Compound 1g, 5-Ethynyl-4-methoxy-7-(β-D-ribofuranosyl)-7H-pyrrolo[2,3-d]pyrimidine] | – | 5.29 | –
11 | C#Cc1cn([C@@H]2O[C@H](CO)[C@@H](O)[C@H]2O)c2ncnc(SC)c12 [Compound 2g, 5-Ethynyl-4-methylsulfanyl-7-(β-D-ribofuranosyl)-7H-pyrrolo[2,3-d]pyrimidine] | – | 7.05 | –
12 | CN(C)c1ncnc2c1c(-c1ccccc1)cn2[C@@H]1O[C@H](CO)[C@@H](O)[C@H]1O [Compound 4e, 4-Dimethylamino-5-phenyl-7-(β-D-ribofuranosyl)-7H-pyrrolo[2,3-d]pyrimidine] | – | < 4.70 | –
13 | CSc1ncnc2c1c(I)cn2[C@@H]1O[C@H](CO)[C@@H](O)[C@H]1O [Compound 2h, 5-Iodo-4-methylsulfanyl-7-(β-D-ribofuranosyl)-7H-pyrrolo[2,3-d]pyrimidine] | – | < 4.70 | 217 to 219
14 | COc1ncnc2c1c(-c1ccccc1)cn2[C@@H]1O[C@H](CO)[C@@H](O)[C@H]1O [Compound 1e, 4-Methoxy-5-phenyl-7-(β-D-ribofuranosyl)-7H-pyrrolo[2,3-d]pyrimidine] | – | < 4.70 | 117 to 120
15 | CSc1ncnc2c1c(-c1cc3ccccc3o1)cn2[C@@H]1O[C@H](CO)[C@@H](O)[C@H]1O [Compound 2f, 5-(Benzofuran-2-yl)-4-methylsulfanyl-7-(β-D-ribofuranosyl)-7H-pyrrolo[2,3-d]pyrimidine] | – | < 4.70 | –
16 | CN(C)c1ncnc2c1c(-c1cccs1)cn2[C@@H]1O[C@H](CO)[C@@H](O)[C@H]1O [Compound 4c, 4-Dimethylamino-7-(β-D-ribofuranosyl)-5-(thiophen-2-yl)-7H-pyrrolo[2,3-d]pyrimidine] | – | < 4.70 | –
17 | Cc1ncnc2c1c(-c1cccs1)cn2[C@@H]1O[C@H](CO)[C@@H](O)[C@H]1O [Compound 5c, 4-Methyl-7-(β-D-ribofuranosyl)-5-(thiophen-2-yl)-7H-pyrrolo[2,3-d]pyrimidine] | – | < 4.70 | 110 to 111
18 | CNc1ncnc2c1c(-c1ccoc1)cn2[C@@H]1O[C@H](CO)[C@@H](O)[C@H]1O [Compound 3b, 5-(Furan-3-yl)-4-methylamino-7-(β-D-ribofuranosyl)-7H-pyrrolo[2,3-d]pyrimidine] | – | < 4.70 | 90 to 97
19 | CN(C)c1ncnc2c1c(-c1ccoc1)cn2[C@@H]1O[C@H](CO)[C@@H](O)[C@H]1O [Compound 4b, 4-Dimethylamino-5-(furan-3-yl)-7-(β-D-ribofuranosyl)-7H-pyrrolo[2,3-d]pyrimidine] | – | < 4.70 | 94 to 97
20 | CSc1ncnc2c1c(-c1ccoc1)cn2[C@@H]1O[C@H](CO)[C@@H](O)[C@H]1O [Compound 2b, 5-(Furan-3-yl)-4-methylsulfanyl-7-(β-D-ribofuranosyl)-7H-pyrrolo[2,3-d]pyrimidine] | – | 7.00 | 121 to 124
21 | CNc1ncnc2c1ccn2[C@@H]1O[C@H](CO)[C@@H](O)[C@H]1O [RC3, reference compound] | – | < 4.70 | –
22 | Cc1ncnc2c1c(-c1ccsc1)cn2[C@@H]1O[C@H](CO)[C@@H](O)[C@H]1O [Compound 5d, 4-Methyl-7-(β-D-ribofuranosyl)-5-(thiophen-3-yl)-7H-pyrrolo[2,3-d]pyrimidine] | – | 5.84 | –
23 | C#Cc1cn([C@@H]2O[C@H](CO)[C@@H](O)[C@H]2O)c2ncnc(C)c12 [Compound 5g, 5-Ethynyl-4-methyl-7-(β-D-ribofuranosyl)-7H-pyrrolo[2,3-d]pyrimidine] | – | < 4.70 | –
24 | C#Cc1cn([C@@H]2O[C@H](CO)[C@@H](O)[C@H]2O)c2ncnc(NC)c12 [Compound 3g, 5-Ethynyl-4-methylamino-7-(β-D-ribofuranosyl)-7H-pyrrolo[2,3-d]pyrimidine] | – | < 4.70 | –
25 | Cc1ncnc2c1c(-c1ccccc1)cn2[C@@H]1O[C@H](CO)[C@@H](O)[C@H]1O [Compound 5e, 4-Methyl-5-phenyl-7-(β-D-ribofuranosyl)-7H-pyrrolo[2,3-d]pyrimidine] | – | 4.02 | –
26 | Cc1ncnc2c1c(-c1ccoc1)cn2[C@@H]1O[C@H](CO)[C@@H](O)[C@H]1O [Compound 5b, 5-(Furan-3-yl)-4-methyl-7-(β-D-ribofuranosyl)-7H-pyrrolo[2,3-d]pyrimidine] | – | < 4.70 | –
27 | Cc1ncnc2c1c(-c1ccco1)cn2[C@@H]1O[C@H](CO)[C@@H](O)[C@H]1O [Compound 5a, 5-(Furan-2-yl)-4-methyl-7-(β-D-ribofuranosyl)-7H-pyrrolo[2,3-d]pyrimidine] | – | 7.40 | –
28 | COc1ncnc2c1ccn2[C@@H]1O[C@H](CO)[C@@H](O)[C@H]1O [RC1, reference compound] | – | < 4.70 | –
29 | CSc1ncnc2c1ccn2[C@@H]1O[C@H](CO)[C@@H](O)[C@H]1O [RC2, reference compound] | < 4.70 | – | –

From US9586986B2, “Substituted 7-deazapurine ribonucleosides for therapeutic uses” (Institute of Organic Chemistry and Biochemistry ASCR, v.v.i., priority 2014, dated 2017)
